Results reported in US6916933B2, “4-pyridinyl-n-acyl-l-phenylalanines” (Hoffman-La Roche Inc., priority 1999, dated 2005).

Legend:
[1] = molecular target: T1, VLA-4 (α4β1 integrin) binding to immobilized VCAM-1 (Homo sapiens, UniProt P05556+P13612); assay: VLA-4/VCAM-1 Screening Assay (solid-phase, dual antibody ELISA); conditions: Ramos cell-derived VLA-4, recombinant human VCAM-1 coated plates, 1 mM MnCl2
T1 construct: followed by 10 μl of Ramos cell-derived VLA-4; endogenous in cells; host or cells: Ramos cells (VLA-4 preparation derived from the cells)
T1 sequence (P13612 34-1032): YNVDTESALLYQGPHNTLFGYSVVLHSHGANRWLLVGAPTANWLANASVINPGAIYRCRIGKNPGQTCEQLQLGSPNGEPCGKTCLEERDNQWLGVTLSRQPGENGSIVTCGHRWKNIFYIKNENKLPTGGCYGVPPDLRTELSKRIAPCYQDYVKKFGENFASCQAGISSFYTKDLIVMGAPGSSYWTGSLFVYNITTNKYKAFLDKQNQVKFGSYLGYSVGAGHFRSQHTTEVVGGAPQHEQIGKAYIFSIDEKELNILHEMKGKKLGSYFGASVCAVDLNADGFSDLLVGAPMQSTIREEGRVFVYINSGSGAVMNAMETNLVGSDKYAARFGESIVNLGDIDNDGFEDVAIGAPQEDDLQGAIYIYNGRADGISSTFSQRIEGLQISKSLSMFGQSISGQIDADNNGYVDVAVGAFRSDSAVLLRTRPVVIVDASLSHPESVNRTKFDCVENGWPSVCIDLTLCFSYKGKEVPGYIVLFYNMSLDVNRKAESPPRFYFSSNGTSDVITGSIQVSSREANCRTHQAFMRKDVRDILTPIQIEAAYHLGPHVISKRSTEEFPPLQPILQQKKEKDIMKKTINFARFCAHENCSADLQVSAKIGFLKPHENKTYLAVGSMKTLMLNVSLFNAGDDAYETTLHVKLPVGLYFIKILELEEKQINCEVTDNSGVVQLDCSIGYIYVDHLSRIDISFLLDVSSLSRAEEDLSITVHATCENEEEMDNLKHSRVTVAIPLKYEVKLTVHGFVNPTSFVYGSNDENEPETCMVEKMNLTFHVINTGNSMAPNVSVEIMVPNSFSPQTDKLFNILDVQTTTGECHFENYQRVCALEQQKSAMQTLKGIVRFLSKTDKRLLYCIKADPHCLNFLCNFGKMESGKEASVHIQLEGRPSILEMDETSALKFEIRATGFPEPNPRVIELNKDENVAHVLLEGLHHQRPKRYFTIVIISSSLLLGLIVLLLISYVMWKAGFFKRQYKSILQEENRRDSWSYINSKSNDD
T1 sequence (P05556 21-798): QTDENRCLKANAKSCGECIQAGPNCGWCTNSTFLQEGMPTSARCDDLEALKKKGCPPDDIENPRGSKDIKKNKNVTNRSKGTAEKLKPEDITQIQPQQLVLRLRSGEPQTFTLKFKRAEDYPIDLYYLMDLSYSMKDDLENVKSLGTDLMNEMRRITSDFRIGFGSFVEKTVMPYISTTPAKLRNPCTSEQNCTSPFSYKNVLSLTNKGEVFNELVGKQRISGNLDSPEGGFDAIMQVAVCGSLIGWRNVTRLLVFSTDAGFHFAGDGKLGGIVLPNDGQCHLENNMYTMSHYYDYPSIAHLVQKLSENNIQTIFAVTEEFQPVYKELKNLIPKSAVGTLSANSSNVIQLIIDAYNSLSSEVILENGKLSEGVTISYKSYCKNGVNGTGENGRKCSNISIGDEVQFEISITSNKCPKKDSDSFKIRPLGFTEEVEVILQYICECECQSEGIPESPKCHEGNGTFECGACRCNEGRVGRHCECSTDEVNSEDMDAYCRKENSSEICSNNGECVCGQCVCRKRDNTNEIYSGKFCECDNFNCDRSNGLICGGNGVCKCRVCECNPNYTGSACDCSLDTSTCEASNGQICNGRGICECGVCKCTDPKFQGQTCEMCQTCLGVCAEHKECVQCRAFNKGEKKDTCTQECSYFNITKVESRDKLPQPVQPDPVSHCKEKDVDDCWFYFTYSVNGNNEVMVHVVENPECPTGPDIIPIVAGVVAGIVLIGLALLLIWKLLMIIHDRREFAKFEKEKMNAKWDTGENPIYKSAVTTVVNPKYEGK
Method: VLA-4/VCAM-1 Screening Assay
VLA-4 antagonist activity, defined as ability to compete for binding to immobilized VCAM-1, was quantitated using a solid-phase, dual antibody ELISA. VLA-4 (α4β1 integrin) bound to VCAM-1 was detected by a complex of anti-integrin β1 antibody: HRP-conjugated anti-mouse IgG: chromogenic substrate (K-Blue). Initially, this entailed coating 96 well plates (Nunc Maxisorp) with recombinant human VCAM-1 (0.4 μg in 100 μl PBS), sealing each plate and then allowing the plates to stand at 4° C. for ^˜18 hr. […] On the day of assay, all plates were washed twice with VCAM Assay Buffer (200 μl/well of 50 mM Tris-HCl, 100 mM NaCl, 1 mM MnCl2, 0.05% Tween 20; pH 7.4). Test compounds were dissolved in 100% DMSO and then diluted 1:20 in VCAM Assay Buffer supplemented with 1 mg/mL BSA (i.e., final DMSO=5%). A series of 1:4 dilutions were performed to achieve a concentration range of 0.005 nM-1.563 μM for each test compound. 100 μl per well of each dilution was added to the VCAM-coated plates, followed by 10 μl of Ramos cell-derived VLA-4. These plates were sequentially mixed on a platform shaker for 1 min, incubated for 2 hr at 37° C., and then washed four times with 200 μl/well VCAM Assay Buffer. 100 μl of mouse anti-human integrin β1 antibody was added to each well (0.6 μg/mL in VCAM Assay Buffer+1 mg/mL BSA) and allowed to incubate for 1 hr at 37° C. At the conclusion of this incubation period, all plates were washed four times with VCAM Assay Buffer (200 μl/well). A corresponding second antibody, HRP-conjugated goat anti-mouse IgG (100 μl per well @ 1:800 dilution in VCAM Assay Buffer+1 mg/mL BSA), was then added to each well, followed by a 1 hr incubation at room temperature and concluded by three washes (200 μl/well) with VCAM Assay Buffer. Color development was initiated by addition of 100 μl K-Blue per well (15 min incubation, room temp) and terminated by addition of 100 μl Red Stop Buffer per well. All plates were then read in a UV/V is spectrophotometer at 650 nM. Results were calculated as % inhibition of total binding (i.e., VLA-4+VCAM-1 in the absence of test compound).
The results are provided in the following Table I (A=IC50<1 nM, B=IC50<10 nM): […]

[2] = molecular target: T2, cell-surface VLA-4 (α4β1 integrin) on Ramos cells binding to immobilized VCAM-1 (Homo sapiens, UniProt P05556+P13612); assay: Ramos (VLA-4)/VCAM-1 Cell-Based Screening Assay (cell adhesion); conditions: Calcein-AM labeled Ramos cells, VCAM-1 coated plates
T2 construct: Ramos cells bearing cell-surface VLA-4; endogenous in cells; host or cells: Ramos cells (VLA-4); VCAM-1 partner made in CHO cells
T2 sequence (P13612 34-1032): as the sequence (P13612 34-1032) above
T2 sequence (P05556 21-798): as the sequence (P05556 21-798) above
Method: Ramos (VLA-4)/VCAM-1 Cell-Based Screening Assay Protocol
Soluble recombinant human VCAM-1 (mixture of 5- and 7-Ig domain) was purified from CHO cell culture media by immunoaffinity chromatography and maintained in a solution containing 0.1 M Tris-glycine (pH 7.5), 0.1 M NaCl, 5 mM EDTA, 1 mM PMSF, […] NaN3 and 10 μg/mL leupeptin. Calcein-AM was purchased from Molecular Probes Inc.
VLA-4 (α4β1 integrin) antagonist activity, defined as ability to compete with cell-surface VLA-4 for binding to immobilized VCAM-1, was quantitated using a Ramos-VCAM-1 cell adhesion assay. Ramos cells bearing cell-surface VLA-4, were labeled with a fluorescent dye (Calcein-AM) and allowed to bind VCAM-1 in the presence or absence of test compounds. A reduction in fluorescence intensity associated with adherent cells (% inhibition) reflected competitive inhibition of VLA-4 mediated cell adhesion by the test compound.
Initially, this entailed coating 96 well plates (Nunc Maxisorp) with recombinant human VCAM-1 (100 ng in 100 μl PBS), sealing each plate and allowing the plates to stand at 4° C. for ≈18 hr. The VCAM-coated plates were subsequently washed twice with 0.05% Tween-20 in PBS, and then blocked for 1 hr (room temperature) with 200 μl of Blocking Buffer (1% BSA/0.02% thimerosal) to reduce non-specific binding. Following the incubation with Blocking Buffer, plates were inverted, blotted and the remaining buffer aspirated. Each plate was then washed with 300 μl PBS, inverted and the remaining PBS aspirated.
Test compounds were dissolved in 100% DMSO and then diluted 1:25 in VCAM Cell Adhesion Assay Buffer (4 mM CaCl2, 4 mM MgCl2 in 50 mM TRIS-HCl, pH 7.5) (final DMSO=4%). A series of eight 1:4 dilutions were performed for each compound (general concentration range of 1 nM-12,500 nM). 100 μl/well of each dilution was added to the VCAM-coated plates, followed by 100 μl of Ramos cells (200,000 cells/well in 1% BSA/PBS). Plates containing test compounds and Ramos cells were allowed to incubate for 45 min at room temperature, after which 165 μl/well PBS was added. Plates were inverted to remove non-adherent cells, blotted and 300 μL/well PBS added. Plates were again inverted, blotted and the remaining buffer gently aspirated. 100 μl Lysis Buffer (0.1% SDS in 50 mM TRIS-HCl, pH 8.5) was added to each well and agitated for 2 min on a rotary shaking platform. The plates were then read for fluorescence intensity on a Cytofluor 2300 (Millipore) fluorecence measurement system (excitation=485 nm, emission=530 nm).
The results are provided in the following Table II (A=IC50<100 nM, B=IC50<10000 nM, C=IC50<5,000 nM): […]

Cc1cccc(Cl)c1C(=O)N[C@@H](Cc1ccc(-c2cc(Cl)cn(C)c2=O)cc1)C(=O)O [Example 8, N-[(2-chloro-6-methylphenyl)carbonyl]-4-(5-chloro-1-methyl-2-oxo-3-pyridinyl)-L-phenylalanine]
IC50 [1]: < 1 nM
IC50 [2]: < 10000 nM

COCCC1(C(=O)N[C@@H](Cc2ccc(-c3cc(Cl)cn(C)c3=O)cc2)C(=O)O)CCCC1 [Example 10, 4-(5-chloro-1-methyl-2-oxo-3-pyridinyl)-N-[[1-(2-methoxyethyl)cyclopentyl]carbonyl]-L-phenylalanine]
IC50 [1]: < 10 nM
IC50 [2]: < 10000 nM

Cc1cccc(Cl)c1C(=O)N[C@@H](Cc1ccc(-c2cc(Cl)cn(Cc3ccccc3)c2=O)cc1)C(=O)O [Example 15, 4-(1-Benzyl-5-chloro-2-oxo-3-pyridinyl)-N-[(2-chloro-6-methylphenyl)carbonyl]-L-phenylalanine]
IC50 [1]: < 10 nM
IC50 [2]: < 5000 nM

COCCC1(C(=O)N[C@@H](Cc2ccc(-c3cc(Cl)cn(Cc4ccccc4)c3=O)cc2)C(=O)O)CCCC1 [Example 17, 4-(1-Benzyl-5-chloro-2-oxo-3-pyridinyl)-N-[[1-(2-methoxyethyl)cyclopentyl]carbonyl]-L-phenylalanine]
IC50 [1]: < 10 nM

COc1ccc(Br)c(C(=O)N[C@@H](Cc2ccc(-c3cccn(C)c3=O)cc2)C(=O)O)c1 [Example 24, N-[(2-bromo-5-methoxyphenyl)carbonyl]-4-(1-methyl-2-oxo-3-pyridinyl)-L-phenylalanine]
IC50 [1]: < 1 nM
IC50 [2]: < 10000 nM

COc1ccc(Br)c(C(=O)N[C@@H](Cc2ccc(-c3cc(Br)cn(C)c3=O)cc2)C(=O)O)c1 [Example 28, N-[(2-bromo-5-methoxyphenyl)carbonyl]-4-(5-bromo-1-methyl-2-oxo-3-pyridinyl)-L-phenylalanine]
IC50 [1]: < 1 nM
IC50 [2]: < 5000 nM
